Test results reported in patent US8835426B2, “Cyclic urea and carbamate inhibitors of 11β-hydroxysteroid dehydrogenase 1” (Vitae Pharmaceuticals, Inc., priority 2007, dated 2014).
pIC50: −log10 of the molar value.

Tests used:
[1] = biological target: T1, purified 11β-HSD1 (recombinant, expressed in E. coli) (Homo sapiens, UniProt P28845); assay: Inhibition of purified 11β-HSD1, Scintillation Proximity Assay; assay type: biochemical; conditions: recombinant enzyme, 3H cortisone, NADPH, room temperature
T1 construct: made in house; host or cells: E. coli
Method: (§1) The inhibition of purified 11β-HSD1 by compounds of Formula I was measured as follows using a Scintillation Proximity Assay. All reactions were carried out at room temperature in 96 well flexible Microbeta reaction plates. The assay begins by adding 1 microliter of a 0.1 mM solution of a compound of Formula I in DMSO previously diluted in half-log increments (8 points) starting at 1 micromolar final concentration. To this dot was added 50 microliters of substrate solution (50 mM HEPES, pH 7.4, 100 mM KCl, 5 mM NaCl, 2 mM MgCl2 containing […] of ^3H cortisone, 1 mM NADPH). After a 10 minute incubation, 50 microliters of enzyme solution containing 20 nM recombinant 11β-HSD1 (expressed in E. coli, and affinity purified) was added, The reaction was incubated for 90 minutes, and stopped by adding 50 microliters of SPA bead mix (18-β-glycyrrhetinic acid, 10 micromolar final, 5 mg/ml protein A coated YSi SPA beads, and 1-microgram/ml alpha-cortisol antibody (East Coast Biologics). The plate shaken for 120 minutes, and the radioactivity corresponding to ^3H cortisol was measured on a Wallac Microbeta.

[2] = biological target: T2, 11β-HSD1 in whole cells (omental adipocytes) (Homo sapiens, UniProt P28845); assay: Inhibition of 11β-HSD1 in whole cells (omental adipocytes), cortisone to cortisol conversion, SPA; assay type: cell-based; conditions: 100 nM [3H] cortisone, 37 degrees C
T2 construct: host or cells: omental adipocytes differentiated from preadipocytes
Method: The inhibition of 11β-HSD1 by compounds of Formula I in whole cells was measured as follows. Omental adipocytes cultured in 96-well plates were purchased from Zen-Bio, Inc. and used at least two weeks after differentiation from precursor preadipocytes started in medium supplemented with adipogenic and lipogenic hormones (human insulin, dexamethasone, isobutylmethylxanthine and PPAR-gamma agonist). The cells were maintained in full adipocyte medium (DMEM/Ham's F-12 (1:1, v/v), HEPES pH 7.4, fetal bovine serum, penicillin, streptomycin and Amphotericin B, supplied by Zen-Bio, Inc.) at 37 degrees C., 5% CO2 and transferred into serum-free, phenol red free medium for overnight incubation. The assay was performed in a total volume of 200 microliters. The cells were pre-incubated with serum-free, phenol red free medium containing 0.1% (v/v) of DMSO and various concentrations of compounds of Formula I at least 1 h before [^3H] cortisone in ethanol (50 Ci/mmol, ARC, Inc.) was added to achieve final concentration of cortisone of 100 nM. The cells were incubated for 3-4 at 37 degrees Centigrade, 5% CO2. Negative controls were incubated without radioactive substrate and received the same amount of [^3H] cortisone at the end of the incubation. Formation of [^3H] cortisol was monitored by analyzing 25 microliters of each supernatant in scintillation proximity assay (SPA). (Solly, K.; Mundt, S. S.; Zokian, H. J.; Ding, G. J.; Hermanowski-Vosatka, A.; Strulovici, B.; Zheng, W. Assay Drug Dev. Technol. 2005, 3, 377-384),

microsomal 11β-HSD1 = microsomal 11β-HSD1 (Homo sapiens, UniProt P28845); assay: Inhibition of microsomal 11β-HSD1, Scintillation Proximity Assay; assay type: biochemical; conditions: microsomal enzyme, same manner as purified enzyme assay
Method: as §1
The inhibition of microsomal 11β-HSD1 was carried out in the same manner.

T1 sequence (P28845 whole entry): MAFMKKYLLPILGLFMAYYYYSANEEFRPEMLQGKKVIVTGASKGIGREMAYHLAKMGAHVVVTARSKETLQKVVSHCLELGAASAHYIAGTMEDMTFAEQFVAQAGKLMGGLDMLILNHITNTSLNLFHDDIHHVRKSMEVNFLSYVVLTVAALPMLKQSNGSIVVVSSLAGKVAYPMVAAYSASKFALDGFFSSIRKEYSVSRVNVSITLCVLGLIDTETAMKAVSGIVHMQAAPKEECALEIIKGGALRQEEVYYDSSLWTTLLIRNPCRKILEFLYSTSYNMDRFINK
microsomal 11β-HSD1, sequence (P28845 whole entry): as above
T2 sequence (P28845 whole entry): as above

SMILES | pIC50 [1] | pIC50 [2] | pIC50 (microsomal 11β-HSD1)
O=C1OC(c2ccc(O)cc2)CN1CC12CC3CC(CC(C3)C1)C2 (stereo not drawn) [Example 17, 3-(1-adamantylmethyl)-5-(4-hydroxyphenyl)oxazolidin-2-one] | 6.00 to 7.30 | – | –
O=C1OC(c2cccc(Cl)c2)CN1CC12CC3CC(CC(C3)C1)C2 (racemic) [Example 9, (±)-3((1-adamantyl)methyl)-5-(3-chlorophenyl)oxazolidin-2-one] | 6.00 to 7.30 | – | –
O=C1O[C@H](C2CCCCC2)CN1C1C2CC3CC(C2)CC1C3 (stereo partly drawn) [Example 21, (R)-3-(2-adamantyl)-5-cyclohexyloxazolidin-2-one] | > 7.30 | > 7.30 | –
CC(C)(C)[C@H]1CN(C2C3CC4CC(C3)CC2C4)C(=O)O1 (stereo partly drawn) [Example 12, (S)-3-(2-adamantyl)-5-tert-butyloxazolidin-2-one] | > 7.30 | > 7.30 | > 7.30
CC(C)CC1(CO)CN(CC23CC4CC(CC(C4)C2)C3)C(=O)N1 (racemic) [Example 36, (±)-1-(1-adamantylmethyl)-4-(hydroxymethyl)-4-isobutylimidazolidin-2-one] | – | – | 6.00 to 7.30
CC(C)[C@H]1CN(C2C3CC4CC(C3)CC2C4)C(=O)N1 (stereo partly drawn) [Example 33, (S)-4-isopropyl-1-(2-adamantyl)imidazolidin-2-one] | – | > 7.30 | > 7.30
O=C1OC(c2ccc(Br)cc2)CN1C1C2CC3CC(C2)CC1C3 (racemic) [Example 29, (±)-5-(4-bromophenyl)-3-(2-adamantyl)oxazolidin-2-one] | – | – | > 7.30
O=C1N[C@@H](c2ccccc2)CN1C12CC3CC(CC(C3)C1)C2 [Example 30, (S)-1-(1-adamantyl)-4-phenylimidazolidin-2-one] | – | 6.00 to 7.30 | > 7.30
CC1CCN(CC23CC4CC(CC(C4)C2)C3)C(=O)O1 (stereo not drawn) [Example 26, 3-((1-adamantyl)methyl)-6-methyl-1,3-oxazinan-2-one] | 6.00 to 7.30 | – | –
CC(C)C[C@H]1CN(C2C3CC4CC2CC(O)(C4)C3)C(=O)O1 (single isomer, unassigned) [Example 13A] | 6.00 to 7.30 | – | –
O=C1O[C@@H](C2CCCCC2)CN1CC1C2CC3CC(C2)CC1C3 (stereo partly drawn) [Example 19, (S)-3-((2-adamantyl)methyl)-5-cyclohexyloxazolidin-2-one] | 6.00 to 7.30 | – | –
C[C@]1(c2ccccc2)CN(C2C3CC4CC(C3)CC2C4)C(=O)O1 (stereo partly drawn) [Example 16, (S)-3-(2-adamantyl)-5-methyl-5-phenyloxazolidin-2-one] | > 7.30 | > 7.30 | –
C[C@@H]1[C@H](c2ccccc2)OC(=O)N1CC12CC3CC(CC(C3)C1)C2 [Example 25, (4R,5S)-3-((1-adamantyl)methyl)-4-methyl-5-phenyloxazolidin-2-one] | > 7.30 | > 7.30 | –
CC(C)C[C@H]1CN(C2C3CC4CC(C3)CC2C4)C(=O)O1 (stereo partly drawn) [Example 5, (S)-3-(2-adamantyl)-5-isobutyloxazolidin-2-one] | > 7.30 | > 7.30 | –
CC(C)C[C@H]1CN(CC23CC4CC(CC(C4)C2)C3)C(=O)O1 [Example 2, (S)-3-((1-adamantyl)methyl)-5-isobutyloxazolidin-2-one] | > 7.30 | 6.00 to 7.30 | –
CC(C)(C)[C@H]1CN(C2C3CC4CC(C3)CC2C4)C(=O)N1 (stereo partly drawn) [Example 27, (S)-1-(2-adamantyl)-4-tert-butylimidazolidin-2-one] | > 7.30 | > 7.30 | –
CC[C@H]1CN(CC23CC4CC(CC(C4)C2)C3)C(=O)O1 [Example 10, (S)-3-((1-adamantyl)methyl)-5-ethyloxazolidin-2-one] | 6.00 to 7.30 | – | –
O=C1OC(c2cccc(-c3ccccc3)c2)CN1C1C2CC3CC(C2)CC1C3 (racemic) [Example 37, (±)-5-(biphenyl-3-yl)-3-(2-adamantyl)oxazolidin-2-one] | – | 6.00 to 7.30 | > 7.30
O=C1OC(c2cccc(Br)c2)CN1C1C2CC3CC(C2)CC1C3 (racemic) [Example 34, (±)-5-(3-bromophenyl)-3-(2-adamantyl)oxazolidin-2-one] | – | – | > 7.30

SMILES | pIC50 [1] | pIC50 [2] | pIC50 (microsomal 11β-HSD1)
O=C1O[C@@H](c2ccccc2)CN1CC1C2CC3CC(C2)CC1C3 (stereo partly drawn) [Example 11, (S)-3((2-adamantyl)methyl)-5-phenyloxazolidin-2-one] | 6.00 to 7.30 | – | –
O=C1O[C@@H](c2ccccc2)CN1C1C2CC3CC(C2)CC1C3 (stereo partly drawn) [Example 14, (S)-3-(2-adamantyl)-5-phenyloxazolidin-2-one] | 6.00 to 7.30 | – | –
O=C1N[C@H](CO)CN1CC12CC3CC(CC(C3)C1)C2 [Example 24, (S)-1-((1-adamantyl)methyl)-4-(hydroxymethyl)imidazolidin-2-one] | 6.00 to 7.30 | – | –
O=C1O[C@@H](c2ccccc2)CN1CC12CC3CC(CC(C3)C1)C2 [Example 1, (S)-3-((1-adamantyl)methyl)-5-phenyloxazolidin-2-one] | > 7.30 | 6.00 to 7.30 | –
CC(C)(C)[C@H]1CN(CC23CC4CC(CC(C4)C2)C3)C(=O)O1 [Example 8, (S)-3-((1-adamantyl)methyl)-5-(t-butyl)oxazolidin-2-one] | > 7.30 | > 7.30 | –
CC(C)(C)C1CCN(C2C3CC4CC(C3)CC2C4)C(=O)N1 (racemic) [Example 31, (±)-4-tert-butyl-1-(2-adamantyl)tetrahydropyrimidin-2(1H)-one] | – | > 7.30 | > 7.30
O=C1OC(C2CCC(O)CC2)CN1CC12CC3CC(CC(C3)C1)C2 (single isomer, unassigned) [Example 22B, 3-(1-adamantylmethyl)-5-(4-hydroxycyclohexyl)oxazolidin-2-one] | 6.00 to 7.30 | – | –
CC(C)C[C@H]1CN(C23CC4CC(CC(C4)C2)C3)C(=O)O1 [Example 4, (S)-3-(1-adamantyl)-5-isobutyloxazolidin-2-one] | > 7.30 | > 7.30 | –
CC(C)CC1(CO)CN(C2C3CC4CC(C3)CC2C4)C(=O)N1 (racemic) [Example 35, (±)-1-(2-adamantyl)-4-(hydroxymethyl)-4-isobutylimidazolidin-2-one] | – | – | > 7.30
O=C1OC(c2ccc(-c3ccccc3)cc2)CN1C1C2CC3CC(C2)CC1C3 (racemic) [Example 38, (±)-5-(biphenyl-4-yl)-3-(2-adamantyl)oxazolidin-2-one] | – | – | > 7.30
O=C1O[C@@H](c2ccccc2Cl)CN1CC12CC3CC(CC(C3)C1)C2 [Example 7, (S)-3-((1-adamantyl)methyl)-5-(2-chlorophenyl)oxazolidin-2-one] | > 7.30 | 6.00 to 7.30 | –
O=C1O[C@@H](C2CCCCC2)CN1CC12CC3CC(CC(C3)C1)C2 [Example 18, (S)-3-((1-adamantyl)methyl)-5-cyclohexyloxazolidin-2-one] | > 7.30 | 6.00 to 7.30 | –
O=C1N[C@@H](C2CCCCC2)CN1C1C2CC3CC(C2)CC1C3 (stereo partly drawn) [Example 32, (S)-4-cyclohexyl-1-(2-adamantyl)imidazolidin-2-one] | – | > 7.30 | > 7.30
CC(C)CC1CCN(CC23CC4CC(CC(C4)C2)C3)C(=O)O1 (stereo not drawn) [Example 23, 3((1-adamantyl)methyl)-6-isobutyl-1,3-oxazinan-2-one] | 6.00 to 7.30 | – | –
O=C1O[C@@H](Cc2ccccc2)CN1CC12CC3CC(CC(C3)C1)C2 [Example 6, (S)-5-benzyl-3-((1-adamantyl)methyl)oxazolidin-2-one] | 6.00 to 7.30 | – | –
O=C1O[C@@H](C2CCCCC2)CN1C1C2CC3CC(C2)CC1C3 (stereo partly drawn) [Example 20, (S)-3-(2-adamantyl)-5-cyclohexyloxazolidin-2-one] | > 7.30 | > 7.30 | –
O=C1O[C@H](c2ccccc2)CN1C1C2CC3CC(C2)CC1C3 (stereo partly drawn) [Example 15, (R)-3-(2-adamantyl)-5-phenyloxazolidin-2-one] | 6.00 to 7.30 | – | –
CC(C)C[C@H]1CN(C2C3CC4CC2CC(O)(C4)C3)C(=O)O1 (single isomer, unassigned) [Example 13B] | < 6.00 | – | –
O=C1O[C@H](c2ccccc2)CN1CC12CC3CC(CC(C3)C1)C2 [Example 3, (R)-3((1-adamantyl)methyl)-5-phenyloxazolidin-2-one] | 6.00 to 7.30 | – | –
